{"source": "patent US12653860B2", "about": "“Compositions and methods for editing beta-globin for treatment of hemaglobinopathies” (Vertex Pharmaceuticals Incorporated, priority 2019, dated 2026)", "key": {"[1]": {"test_system": "CD34-expressing LT-HSPCs from a human donor with sickle cell disease", "test": "Hemoglobin expression (HbS, HbA) by HPLC in edited differentiated patient LT-HSPCs", "assay_type": "cell-based", "details": "FIG. 32B", "description": "Hemoglobin expressed by edited cells that were differentiated to erythrocytes was assessed. Hemoglobin A (HbA) is composed of 2 alpha-globin and 2 beta-globin units and is the dominant hemoglobin in adult humans. In human carriers of the HBB E6V mutation, a high proportion of total hemoglobin is hemoglobin S (HbS), which is composed of 2 alpha-globin units and 2 beta-globin units with E6V.\nBriefly, on day 18 post-editing, 1×10^6 cells were harvested, centrifuged, and washed with PBS. The cells were prepared for HPLC analysis. Hemoglobin variants were quantified in cell samples using reverse-phase HPLC chromatography and gradient elution. […] Thus, high levels of HDR achieved with i53 contribute to normalization of hemoglobin expression products."}, "[2]": {"test_system": "HBB gene in CD34-expressing LT-HSPCs derived from human patients with sickle cell disease", "test": "Correction of sickle mutation (E6V to E6) by HDR in SCD patient-derived LT-HSPCs, NGS", "assay_type": "cell-based", "parameters": "dose or concentration left out as unconfirmed", "details": "R02 RNP+AAV.323 + i53 mRNA; FIG. 30A, 32B", "description": "The AAV-encoded homology donor used for correction is referred to as “AAV.323” and is identified by sequence in Table 8."}, "HBB locus": {"test_system": "HBB locus", "test": "Indel formation in mouse bone marrow 16 weeks post engraftment, TIDE", "assay_type": "in vivo, mice", "description": "(§1) NHEJ editing of the HBB locus was also evaluated in mouse bone marrow collected at 16 weeks post engraftment. Indel formation at the site of Cas9/gRNA cutting was evaluated by TIDE analysis in bone marrow samples and compared to indel formation of LT-HSPCs prior to administration.\nas §1, with “administration. Regardless of the method used to edit the LT-HSPCs, indel formation was similar at 16 weeks post-engraftment to the level present prior to administration (FIG. 27).” for “administration.”"}, "[3]": {"test_system": "HBB gene locus in CD34-expressing LT-HSPCs", "test": "INDEL frequency and species at R02 cut site with DNA-PK inhibitors, NGS", "assay_type": "cell-based, human", "details": "1 μg i53 mRNA; R02 RNP+AAV.307", "description": "Editing was performed as described above. However, the cells were electroporated with AAV.307 administered 1 hour prior to electroporation at a dose of 10,000 MOI. The cells were electroporated with compound 296 at a concentration ranging from 0.005 μM to 10 μM, with compound 984 at a concentration ranging from 0.005 μM to […], or with 1 μg i53 mRNA. Negative control cells were electroporated with RNP+AAV only or RNP only.\nEdited cells were evaluated for viability as described above, and for incorporation of gene-edits at 2 days post-electroporation. […] The frequency of INDELs induced at the R02 cut site was also evaluated by NGS analysis.\nThe INDELs species identified for cells edited in Experiment 2 were further evaluated to determine frequency of repair by NHEJ or MMEJ repair pathways. An INDEL of 1 nt was considered due to NHEJ repair; a deletion of −9 nt was considered due to MMEJ repair based on the microhomology present on either side of the R02 cut site. Based on percentage of total reads corresponding to these INDEL species, the ratio of gene edits due to NHEJ and MMEJ repair was evaluated."}, "[4]": {"test_system": "HBB gene in PBMCs from a human donor with sickle cell disease", "test": "HDR correction and INDELs in patient-derived PBMCs, NGS", "assay_type": "cell-based", "description": "(§2) It was further evaluated if editing of patient-derived PBMCs in the presence of i53 would yield high levels of correction of the HBB gene. […] The PBMCs were expanded in StemSpan SFEM II (1×)+StemSpan CC100 (1×)+Dexamethasone […]+hEPO 2IU/mL at 37° C. under normoxic conditions (20% O2 concentration). The cells were edited following five days of in vitro culture. […] On day 8, the cells were transferred to Phase 1 media, and differentiation to erythrocytes was performed through day 18 as described above. Efficiency of HDR at the HBB gene locus was evaluated on day 12 using the NGS assay described in Example 4. Also evaluated was the frequency of INDELs at the R02 cut-site as measured by NGS."}, "[5]": {"test_system": "PBMCs from a human donor with sickle cell disease", "test": "Hemoglobin expression by HPLC in edited patient-derived PBMCs", "assay_type": "cell-based", "details": "compared to mock EP control cells, FIG. 34", "description": "as §2\nHemoglobin expression was measured by HPLC analysis for edited PBMCs as described above."}, "[6]": {"test_system": "AAVS1 locus in hTERT RPE-1 cells", "test": "HDR insertion of AAV GFP donor at AAVS1 locus in hTERT RPE-1 cells", "assay_type": "cell-based, human", "details": "mRNA encoding i53; AAV 25,000 MOI; FIG. 7", "description": "RPE1 cells were lipofected with RNP comprised of Cas9 protein and gRNA targeting the AAVS1 locus (target sequence shown in SEQ ID NO: 3; spacer sequence shown in SEQ ID NO: 4). Cells were edited with 1 g Cas9 and 1 g gRNA. Cells were infected with AAV containing homology donor DNA encoding GFP (DJ serotype) as well as mRNA encoding i53 (mRNA ORF shown in SEQ ID NO: 69). […] HDR efficiency was determined by measuring the level of GFP fluorescence in the cells following gene-editing."}}, "data": [{"substance": "i53: polypeptide inhibitor of 53BP1 (SEQ ID NO: 70), delivered as mRNA (ORF SEQ ID NO: 69)", "values": [{"measurement": "decrease in HbS levels relative to mock EP control cells", "setting": "[1]", "value": 90, "unit": "%"}, {"measurement": "incorporation of the E6V→E6 gene correction by HDR", "setting": "[2]", "value": 66, "unit": "%"}, {"measurement": "level of indel formation in bone marrow", "setting": "HBB locus; AAV.304, FIG. 27", "value": "lowest"}, {"measurement": "level of indel formation in bone marrow", "setting": "HBB locus; AAV.307, FIG. 20", "value": "lowest"}, {"measurement": "frequency of INDELs relative to control cells", "setting": "[3]", "value": "reduced frequency of INDELs"}, {"measurement": "frequency of INDELs", "setting": "[4]; compared to control cells, FIG. 33B", "value": "reduced"}, {"measurement": "frequency of correction of the HBB gene by HDR repair", "setting": "[4]; day 12, FIG. 33A", "value": "approximately 60%"}, {"measurement": "expression of HbA", "setting": "[5]", "value": "increased expression of HbA"}, {"measurement": "expression of HbS", "setting": "[5]", "value": "significant reduction in expression of HbS"}, {"measurement": "HDR efficiency over AAV alone", "setting": "[6]", "value": "increase in HDR efficiency"}]}]}
